Laboratory results taken from article PMC7129073 (Clinical Microbiology and Infection, 2015).
Converted amounts (≈) assume the structure as drawn. “Also recorded” adds a separate entry of the source.

Legend:
[1] = test system: E. coli (TEM 10 transformant); assay: NCCLS agar dilution MIC; format: cell-based; details: Escherichia coli
[2] = test system: E. coli (OXA 5 transformant); assay: NCCLS agar dilution MIC; format: cell-based; details: Escherichia coli
[3] = test system: Citrobacter freundii (ceftazidime R); assay: NCCLS agar dilution MIC; format: cell-based; details: n=6
[4] = test system: Morganella morganii (ceftazidime R); assay: NCCLS agar dilution MIC; format: cell-based; design: unit not given beside the values; details: n=2
P. aeruginosa = format: cell-based, Pseudomonas aeruginosa
Acinetobacter = assay: Disk diffusion; format: cell-based; details: 37 isolates selected as resistant to beta-lactams
[5] = test system: P. aeruginosa strains from CF sputa; assay: O-serotyping; format: cell-based, Pseudomonas aeruginosa; details: exposure to 1/2–1/16 MIC (ceftazidime) or 1/2–1/8 MIC (ciprofloxacin)
Enterobacter spp = assay: E-test susceptibility; format: cell-based
K. oxytoca = assay: E-test susceptibility; format: cell-based, Klebsiella oxytoca
Escherichia coli = assay: Vitek 2 susceptibility, urine isolates of children; format: cell-based
E. coli [6] = assay: E-test susceptibility; format: cell-based, Escherichia coli
E. coli [7] = assay: SMART 2003 Europe, microdilution; format: cell-based, Escherichia coli; details: 1106 isolates
Pseudomonas aeruginosa = assay: MIC, strains from cystic fibrosis patients; details: by MIC
Klebsiella = assay: SMART 2003 Europe, microdilution; format: cell-based, Klebsiella spp.; details: 341 isolates
Enterobacteriaceae = assay: SMART 2003 Europe, microdilution; format: cell-based; details: 1948 isolates
K. pneumoniae = assay: E-test susceptibility; format: cell-based, Klebsiella pneumoniae
[8] = test system: Pseudomonas putida clinical isolates; assay: Agar dilution MIC; format: cell-based
Escherichia coli (ECO) = assay: Broth microdilution; format: cell-based; details: 2001
[9] = test system: E. coli (TEM 9 transformant); assay: NCCLS agar dilution MIC; format: cell-based; details: Escherichia coli, n=1 per table line (three lines)
[10] = test system: inducible Enterobacteriaceae; assay: SMART 2003, intraabdominal isolates; format: cell-based

Compound `C[C@H]1[C@H](NC(=O)/C(=N\OC(C)(C)C(=O)O)c2csc(N)n2)C(=O)N1S(=O)(=O)O` [aztreonam] has an MIC [1] of 32 µg/mL (≈ 73.5 µM), an MIC [2] of 16 µg/mL (≈ 36.7 µM) and an MIC range [3] of 4 to 64 mg/L. For the same compound, the “MIC (two isolates)” value [4] was 2/8.
For `CC(C)(O/N=C(\C(=O)N[C@@H]1C(=O)N2C(C(=O)[O-])=C(C[n+]3ccccc3)CS[C@H]12)c1csc(N)n1)C(=O)O` [ceftazidime], the resistant (P. aeruginosa) was 32%, the resistant isolates (Acinetobacter) was 56.8% and the MIC [1] was over 128 µg/mL. For the same compound, the MIC [2] was 64 µg/mL (≈ 117 µM), the “change of agglutination type of nine monoagglutinable strains” value [5] was “seven strains have become auto-agglutinable; also recorded: two strains have become polyagglutinable” and the Susceptible isolates (Enterobacter spp; ICU) was 75%. The Susceptible isolates (Enterobacter spp; non ICU) was 89%, the Susceptible isolates (K. oxytoca; ICU) was 100/100% and the Susceptible isolates (K. oxytoca; non ICU) was 100/100%. For the same compound, the susceptibility rate (Escherichia coli; paediatric surgical unit (PSU)) was 39%, the susceptibility rate (Escherichia coli; paediatric units (PU)) was 95% and the Susceptible isolates (E. coli [6]; ICU, SRGA breakpoints, tigecycline tentative S ≤2 μg/ml) was 98%. It also gave a Susceptible isolates (E. coli [6]; non ICU) of 99%, a per cent susceptible (E. coli [7]) of 96% and a Susceptible isolates (Pseudomonas aeruginosa) of 84%. For the same compound, the per cent susceptible (Klebsiella) was 94%, the per cent susceptible (Enterobacteriaceae) was 92% and the Susceptible isolates (K. pneumoniae; ICU) was 98%. For the same compound, the Susceptible isolates (K. pneumoniae; non ICU) was 100%, the MIC [8] was over 128 µg/mL and the susceptible (Escherichia coli (ECO); NAL-resistant isolates) was 93.3%. For the same compound, the susceptible (Escherichia coli (ECO); NAL-susceptible isolates) was 99.0%, the “MIC (two isolates)” value [4] was 16/64 and the MIC [9] was over 128 µg/mL. The “% susceptible” value ([10]; A/P (N = 200)) was 59%, the “% susceptible” value ([10]; EU (N = 354)) was 75% and the “% susceptible” value ([10]; LA (N=113)) was 69%. The “% susceptible” value ([10]; NA (N = 163)) was 71%.
